Assay results taken from PMC9570995, “Design, Synthesis, and Biological Evaluation of Novel Dihydropyridine and Pyridine Analogs as Potent Human Tissue Nonspecific Alkaline Phosphatase Inhibitors with Anticancer Activity: ROS and DNA Damage-Induced Apoptosis” (Molecules, 2022).

Tests used:
Herring sperm DNA = assay: Fluorescence emission titration with DNA; format: binding; conditions: compound 10 µM, DMF/H2O (1:9, v/v)
Procedure: The fluorescence emission studies of compound 4d (10 µM) were accomplished in DMF/H2O (1:9, v/v) before and after the continual addition of DNA (0–50 µg/mL) to probe out the compound-DNA interaction. […] As evident in Figure 8, the fluorescence emission of compound 4d was attenuated by ~55% (calculated through I0/I) upon the maximum addition of 50 µg/mL of DNA. The substantial fluorescence quenching behavior of 4d upon the addition of DNA is perhaps attributed to the efficient binding of the compound to the minor groove of DNA [68]. […] Next, the excellent binding efficiency of compound 4d with DNA was well elucidated through the Stern–Volmer (SV) plot, which was produced between the increased fluorescence quenching efficiency and increasing concentration of DNA solution. […]
Reagent grade solvents were used for purification purposes. Silica gel with 70–230 mesh size and pure solvents were used for the column chromatography. ^1H, ^13C, and DEPT-135 NMR spectra were recorded on a 400 MHz spectrometer using DMSO as the solvent and TMS as the internal standard. The chemical shifts, multiplicity, and coupling constants were calculated from data obtained through the FID file. […] The IC50 and percent inhibition were calculated by using GraphPad software. […] The optical density was measured through a microplate reader at 570 nm. […]

HeLa cells = assay: Microscopic evaluation of ROS generation (H2DCF-DA); format: cell-based; conditions: IC50 and 2 × IC50, versus control
Excerpt: The production of reactive oxygen species (ROS) has been an extensively researched topic in medicinal chemistry due to their involvement in numerous biochemical phases of health and disease. In a biological system, redox-sensitive fluorogenic materials such as 2′,7′-dichlorodihydrofluorescein-diacetate (DCFH2-DA) are commonly used to investigate the production of ROS during oxidative stress. It easily penetrates through the cell membrane, where esterase enzyme hydrolyzes the acetate group to a more hydrophilic group, which further oxidizes in the cytoplasmic region to give rise to a highly fluorescent product. In this study, the HeLa cells were used to investigate the production of ROS. The non-fluorescent material 2′,7′-dichlorodihydrofluorescein (DCFH2) converts into the fluorescent 2′,7′-dichlorofluorescein (DCF) under intracellular oxidative stress.
The production of reactive oxygen species (ROS) in compound 4d-treated HeLa cells was observed by applying a published protocol with some modifications. Cells at a density of 2 × 10^5 cells/well/mL were grown on round coverslips in a 24-well plate and kept in an incubator having humid 5% CO2 and 95% air at 37 °C. […] Cells were gently washed with PBS to remove excess dye, and images were captured at a magnification of 20× using excitation/emission filters at 488/530 nm with the help of a fluorescence microscope (Nikon ECLIPSE Ni–U).

N#CC1=C(N)N(Cc2ccccc2)C(N)=C(C#N)C1c1ccc2ccccc2c1 [Compound 4d, 2,6-Diamino-1-benzyl-4-(naphthalen-2-yl)-1,4-dihydropyridine-3,5-dicarbonitrile]
Stern–Volmer constant (Ksv) (Herring sperm DNA; DNA 0–50 µg/mL): 34100 M⁻¹ | attenuation of fluorescence emission (Herring sperm DNA; 50 µg/mL DNA, emission 410 nm): ~ 55% | production of ROS (HeLa cells): dose-dependent increase
